Tested on: 624824-186-R-J2-PDC multicell spheroids, viability
Assay: Anticancer human tumor 624824-186-R-J2-PDC patient-derived colon adenocarcinoma cell line growth inhibition [PI3K]
Settings: for IC50: curve of first compound; for viability, T/C: stronger effect = lower value
Text: Combinatorial screen of targeted agents with the PI3K inhibitors inavolisib, alpelisib, duvelisib, and copanlisib in multi-cell type tumor spheroids
A high-throughput screen of multi-cell type tumor spheroids was designed to identify active combinations of targeted small molecules and PI3K pathway inhibitors. Complex spheroids include a stromal component modeled by human endothelial cells (HUVEC) and fibroblasts modeled by human mesenchymal stem cells (MSCs). The concentration ranges selected for each drug and investigational agent were based upon clinically achievable concentrations if the clinical Cmax of the agent was known.
Compounds. The drugs and investigational agents: inavolisib (NSC800729), alpelisib (NSC765974), duvelisib (NSC772469), copanlisib (NSC816437), ipatasertib (NSC767898), afuresertib (NSC778305), talazoparib (NSC767125), sapanisertib (NSC764658), selumetinib (NSC741078), tovorafenib (DAY101, NSC766906), vemurafenib (NSC761431), ravoxertinib (NSC781343), sotorasib (NSC818433), MRTX1133 (NSC 836407), abemaciclib (NSC 768073), palbociclib (NSC758247), venetoclax (NSC 766270), SY5609 (NSC837396), enzalutamide (NSC755605), and darolutamide (NSC825331), were obtained from the National Cancer Institute (NCI) Developmental Therapeutics Program Chemical Repository. The FDA-approved anticancer drug set is available from the NCI Developmental Therapeutics Program. […] The stock solutions were prepared in dimethyl sulfoxide (DMSO, Sigma-Aldrich, St. Louis, MO, cat. D2650) at 800-fold the tested concentration and stored at -70 degrees C prior to their use. All drugs and investigational agents were tested over a range starting from a high concentration at or near the clinical Cmax and decreasing in half-log increments. If the clinical Cmax for an agent had not been determined, the highest concentration tested was 10 microM.
Cell Culture. All cells were maintained in an incubator at 37 degrees C and 5% CO2 with 95% humidity. The PDC lines were cultured according to standard operating procedures established by the NCI PDMR (https://pdmr.cancer.gov/sops/default.htm). All PDCs were thawed and cultured in Matrigel-coated flasks prepared with a working solution of 1X Ham's F-12 nutrient mix, without supplementation (Invitrogen, Waltham, MA, cat. 11765054), 100 U/mL penicillin-streptomycin (Invitrogen, cat. 15140122), and 2.5% Matrigel (Corning Inc., Corning, NY, cat. 354248) for the first three passages. The 354836-022-R-J1-PDC, 475296-252-R-J1-PDC, and 997726-040-R-J2-PDC lines were cultured in 6A media, which includes advanced DMEM/F-12 (Thermo Fisher Scientific, cat. 12634028), 10 mM HEPES (Thermo Fisher Scientific, cat. 15630080), 1X GlutaMAX supplement (Thermo Fisher Scientific, cat. 35050061), 0.1 mg/mL primocin (InvivoGen, San Diego, CA, cat. ant-pm-2), 10% defined fetal bovine serum, heat inactivated (HyClone Laboratories Inc., Logan, UT, cat. SH30070.03HI), 50% L-WRN conditioned media (ATCC, cat. CRL-3276), 1.25 mM N-Acetyl-L-cysteine (Sigma-Aldrich, cat. A9165), 10 mM nicotinamide (Sigma-Aldrich, cat. N0636), 1X B-27 supplement (Thermo Fisher Scientific, cat. 17504044), 1X N-2 supplement (Thermo Fisher Scientific, cat. 17502048), and 10 microM Y-27632 dihydrochloride (Tocris Bioscience, Bristol, United Kingdom, cat. 1254). The 624824-186-R-J2-PDC line was cultured in 6C/Colon 1B media, which includes all 6A media components plus 50 ng/mL human EGF recombinant protein (Thermo Fisher Scientific, cat. PHG0311). […]
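Also: spheroids exposed to agents for 7 days before viability read.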
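For viability, T/C in this document: 100% = DMSO vehicle treated spheroids.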

Question: CC(=O)c1c(C)c2cnc(Nc3ccc(N4CCNCC4)cn3)nc2n(C2CCCC2)c1=O + CC(Nc1ccc2c(c1)OCCn1cc(N3C(=O)OCC3C(F)F)nc1-2)C(N)=O was tested. Which IC50 (second compound 0.00316 µM) did it give?
Answer: > 100 nM

Question: What about the IC50 (second compound 0.01 µM) of the same molecule?
Answer: > 100 nM

Question: And the IC50 (second compound 0.0316 µM)?
Answer: > 100 nM

Question: What about the IC50 (second compound 0.1 µM) of the same molecule?
Answer: > 100 nM

Question: And the IC50 (second compound 0.316 µM)?
Answer: > 100 nM

Question: What about the IC50 (second compound 1 µM) of the same molecule?
Answer: > 100 nM

Question: What about the viability, T/C (second compound 0.00316 µM, first compound 0.000316 µM) of the same molecule?
Answer: 105%

Question: What about the viability, T/C (second compound 0.00316 µM, first compound 0.001 µM) of the same molecule?
Answer: 80.9%

Question: What about the viability, T/C (second compound 0.00316 µM, first compound 0.00316 µM) of the same molecule?
Answer: 108%

Question: And the viability, T/C (second compound 0.00316 µM, first compound 0.01 µM)?
Answer: 96.2%

Question: And the viability, T/C (second compound 0.00316 µM, first compound 0.0316 µM)?
Answer: 82.7%

Question: And the viability, T/C (second compound 0.00316 µM, first compound 0.1 µM)?
Answer: 89.9%

Question: What about the viability, T/C (second compound 0.01 µM, first compound 0.000316 µM) of the same molecule?
Answer: 114%

Question: And the viability, T/C (second compound 0.01 µM, first compound 0.001 µM)?
Answer: 92.7%

Question: And the viability, T/C (second compound 0.01 µM, first compound 0.00316 µM)?
Answer: 106%

Question: What about the viability, T/C (second compound 0.01 µM, first compound 0.01 µM) of the same molecule?
Answer: 101%

Question: And the viability, T/C (second compound 0.01 µM, first compound 0.0316 µM)?
Answer: 93.7%

Question: And the viability, T/C (second compound 0.01 µM, first compound 0.1 µM)?
Answer: 91.7%

Question: And the viability, T/C (second compound 0.0316 µM, first compound 0.000316 µM)?
Answer: 104%

Question: What about the viability, T/C (second compound 0.0316 µM, first compound 0.001 µM) of the same molecule?
Answer: 94.2%

Question: And the viability, T/C (second compound 0.0316 µM, first compound 0.00316 µM)?
Answer: 113%

Question: What about the viability, T/C (second compound 0.0316 µM, first compound 0.01 µM) of the same molecule?
Answer: 85.2%

Question: What about the viability, T/C (second compound 0.0316 µM, first compound 0.0316 µM) of the same molecule?
Answer: 101%

Question: What about the viability, T/C (second compound 0.0316 µM, first compound 0.1 µM) of the same molecule?
Answer: 102%

Question: And the viability, T/C (second compound 0.1 µM, first compound 0.000316 µM)?
Answer: 86.7%

Question: And the viability, T/C (second compound 0.1 µM, first compound 0.001 µM)?
Answer: 101%

Question: What about the viability, T/C (second compound 0.1 µM, first compound 0.00316 µM) of the same molecule?
Answer: 91.2%

Question: And the viability, T/C (second compound 0.1 µM, first compound 0.01 µM)?
Answer: 75.5%

Question: And the viability, T/C (second compound 0.1 µM, first compound 0.0316 µM)?
Answer: 80.1%

Question: What about the viability, T/C (second compound 0.1 µM, first compound 0.1 µM) of the same molecule?
Answer: 87.7%

Question: What about the viability, T/C (second compound 0.316 µM, first compound 0.000316 µM) of the same molecule?
Answer: 87.7%

Question: What about the viability, T/C (second compound 0.316 µM, first compound 0.001 µM) of the same molecule?
Answer: 76.6%

Question: And the viability, T/C (second compound 0.316 µM, first compound 0.00316 µM)?
Answer: 78.8%

Question: What about the viability, T/C (second compound 0.316 µM, first compound 0.01 µM) of the same molecule?
Answer: 85.8%

Question: What about the viability, T/C (second compound 0.316 µM, first compound 0.0316 µM) of the same molecule?
Answer: 87%

Question: What about the viability, T/C (second compound 0.316 µM, first compound 0.1 µM) of the same molecule?
Answer: 113%

Question: And the viability, T/C (second compound 1 µM, first compound 0.000316 µM)?
Answer: 90%

Question: And the viability, T/C (second compound 1 µM, first compound 0.001 µM)?
Answer: 85.4%

Question: What about the viability, T/C (second compound 1 µM, first compound 0.00316 µM) of the same molecule?
Answer: 86.5%

Question: What about the viability, T/C (second compound 1 µM, first compound 0.01 µM) of the same molecule?
Answer: 87.3%

Question: What about the viability, T/C (second compound 1 µM, first compound 0.0316 µM) of the same molecule?
Answer: 86.1%

Question: And the viability, T/C (second compound 1 µM, first compound 0.1 µM)?
Answer: 93.1%

Source: PubChem BioAssay AID1963975 (Molecular Pharmacology Branch, DTP, NCI, 2024)
